Assay results published in the supplement of paper PMC11061612.

Experiments:
SH-4 (Melanoma) [1] = experiment: Bliss excess, mean over the matrix (fraction); higher = more synergy
Procedure, shortened: (§1)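 Cell lines in DMEM/F12 or RPMI with 10% FBS were plated in 1536-well plates, held 24 hours at 37°C, 5% CO2, then given two-drug dose matrices for 72 hours (DMSO typically 0.2%). Viability was read by CellTiter-Glo 2.0 luminescence and scaled as inhibition from 0 (vehicle wells) to 1 (blank wells). Combination Emax is the second-highest inhibition in the matrix; Bliss excess is observed combination effect minus expected EA + EB − EA·EB, EA and EB being single-agent effects.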

[2] = test system: RPMI-6666 (Non-Cancerous); experiment: as above
Procedure, shortened: as §1

[3] = test system: CTB-1 (B-Cell Non-Hodgkin's Lymphoma); experiment: as above
Procedure, shortened: as §1

COLO-829 (Melanoma) [4] = experiment: as above
Procedure, shortened: as §1

NCI-H2461 (Mesothelioma) = experiment: combination Emax (second highest fraction inhibited in the dose matrix, 72 h); higher = more inhibition; extreme values may be limits of the assay
Procedure, shortened: as §1

SH-4 (Melanoma) [5] = experiment: as above
Procedure, shortened: as §1

[6] = test system: NCI-H69 (Small Cell Lung Carcinoma); experiment: as above
Procedure, shortened: as §1

[7] = test system: RT-112 (Bladder Carcinoma); experiment: as above
Procedure, shortened: as §1

[8] = test system: KARPAS-231 (B-Cell Non-Hodgkin's Lymphoma); experiment: as above
Procedure, shortened: as §1

[9] = test system: LoVo (Colorectal Carcinoma); experiment: as above
Procedure, shortened: as §1

[10] = test system: CAL-51 (Breast Carcinoma); experiment: as above
Procedure, shortened: as §1

[11] = test system: Hs-633T (Other Solid Carcinomas); experiment: as above
Procedure, shortened: as §1

[12] = test system: OC-314 (Ovarian Carcinoma); experiment: as above
Procedure, shortened: as §1

[13] = test system: TE-4 (Esophageal Squamous Cell Carcinoma); experiment: as above
Procedure, shortened: as §1

[14] = test system: SU-DHL-6 (B-Cell Non-Hodgkin's Lymphoma); experiment: as above
Procedure, shortened: as §1

[15] = test system: HDLM-2 (Hodgkin's Lymphoma); experiment: as above
Procedure, shortened: as §1

[16] = test system: HCC-15 (Squamous Cell Lung Carcinoma); experiment: as above
Procedure, shortened: as §1

COLO-829 (Melanoma) [17] = experiment: as above
Procedure, shortened: as §1

[18] = test system: SK-OV-3 (Ovarian Carcinoma); experiment: as above
Procedure, shortened: as §1

[19] = test system: SUP-T1 (T-Lymphoblastic Leukemia); experiment: as above
Procedure, shortened: as §1
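For Bliss excess, mean over the matrix in this document: after 72 h of two-drug dosing.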

`CC1(C)CCC(CN2CCN(c3ccc(C(=O)NS(=O)(=O)c4ccc(NCC5CCOCC5)c([N+](=O)[O-])c4)c(Oc4cnc5[nH]ccc5c4)c3)CC2)=C(c2ccc(Cl)cc2)C1` [Venetoclax] + CN(C)CCCOc1ccc(-c2ccc3ncc4c(c3c2)n(C2CCOCC2)c(=O)n4C)cn1 [AZD0156] (first compound max 1 µM, 7x7, partner max 1 µM) was tested, and the Bliss excess (SH-4 (Melanoma) [1]) was -0.0087, the Bliss excess [2] was -0.0231 and the Bliss excess [3] was -0.024. The Bliss excess (COLO-829 (Melanoma) [4]) was -0.0264, the “combination Emax” value (NCI-H2461 (Mesothelioma)) was 0.525 and the “combination Emax” value (SH-4 (Melanoma) [5]) was 0.279. The “combination Emax” value [6] was 0.548, the “combination Emax” value [7] was 0.243 and the “combination Emax” value [8] was 0.816. The “combination Emax” value [9] was 0.283, the “combination Emax” value [10] was 0.242 and the “combination Emax” value [11] was 0.266. The “combination Emax” value [12] was 0.316, the “combination Emax” value [13] was 0.179 and the “combination Emax” value [14] was 0.904. The “combination Emax” value [15] was 0.362, the “combination Emax” value [16] was 0.215 and the “combination Emax” value (COLO-829 (Melanoma) [17]) was 0.21. The “combination Emax” value [18] was 0.239 and the “combination Emax” value [19] was 0.616.
`C=CCn1c(=O)c2cnc(Nc3ccc(N4CCN(C)CC4)cc3)nc2n1-c1cccc(C(C)(C)O)n1` [AZD1775] + O=C(c1cc(Cc2n[nH]c(=O)c3ccccc23)ccc1F)N1CCN(C(=O)C2CC2)CC1 [Olaparib] (first compound max 1 µM, partner max 10 µM) gave a Bliss excess (SH-4 (Melanoma) [1]) of -0.0882, a Bliss excess [2] of -0.0373 and a Bliss excess [3] of -0.0921. The Bliss excess (COLO-829 (Melanoma) [4]) was -0.0137, the “combination Emax” value (NCI-H2461 (Mesothelioma)) was 0.649 and the “combination Emax” value (SH-4 (Melanoma) [5]) was 0.492. For the same compound, the “combination Emax” value [6] was 0.478, the “combination Emax” value [7] was 0.705 and the “combination Emax” value [8] was 0.972. The “combination Emax” value [9] was 0.781, the “combination Emax” value [10] was 0.811 and the “combination Emax” value [11] was 0.657. For the same compound, the “combination Emax” value [12] was 0.631, the “combination Emax” value [13] was 0.366 and the “combination Emax” value [14] was 0.85. The “combination Emax” value [15] was 0.74, the “combination Emax” value [16] was 0.31 and the “combination Emax” value (COLO-829 (Melanoma) [17]) was 0.174. The “combination Emax” value [18] was 0.547 and the “combination Emax” value [19] was 0.879.
